US6737383B1, “Herbicidal oxadiazolidines” (priority 1999, dated 2004)

Legend:
smallflower flatsedge = test: Test B flood test smallflower flatsedge; format: in vivo, Cyperus difformis
Procedure, shortened: (§1)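 Plants were grown to the 2-leaf stage before treatment with test chemical, then held in a greenhouse for twelve to sixteen days. Injury was visually rated against untreated controls on a 0–10 scale, where 0 is no effect and 10 is complete control.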

rape = test: Test B pre/postemergence rape; format: in vivo, Brassica napus
Procedure, shortened: (§2)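 Herbicidal effect was estimated by eye on a ten-point control scale after plants spent twelve to sixteen days in a greenhouse following soil or foliar treatment. Foliar sprays targeted plants at one to four leaves; all doses were formulated in a non-phytotoxic solvent with surfactant.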

bamyardgrass = test: Test B flood test barnyardgrass; format: in vivo, Echinochloa crus-galli
Procedure, shortened: as §1

bedstraw = test: Test B pre/postemergence bedstraw; format: in vivo, Galium aparine; conditions: Postemergence, Rate 250 g/ha; scale of 0 to 10, 0 is no effect, 10 is complete control
Procedure, shortened: as §2

sugar beet = test: Test B pre/postemergence sugar beet; format: in vivo, Beta vulgaris
Procedure, shortened: as §2

velvetleaf = test: Test B pre/postemergence velvetleaf; format: in vivo, Abutilon theophrasti
Procedure, shortened: as §2

corn = test: Test B pre/postemergence corn; format: in vivo, Zea mays
Procedure, shortened: as §2

wheat = test: Test B pre/postemergence wheat; format: in vivo, Triticum aestivum
Procedure, shortened: as §2

cocklebur = test: Test B pre/postemergence cocklebur; format: in vivo, Xanthium strumarium
Procedure, shortened: as §2

crabgrass = test: Test B pre/postemergence crabgrass; format: in vivo, Digitaria sanguinalis
Procedure, shortened: as §2

pigweed = test: Test B pre/postemergence pigweed; format: in vivo, Amaranthus retroflexus
Procedure, shortened: as §2

soybean = test: Test B pre/postemergence soybean; format: in vivo, Glycine max
Procedure, shortened: as §2

purple nutsedge = test: Test B pre/postemergence purple nutsedge; format: in vivo, Cyperus rotundus
Procedure, shortened: as §2

wild oat = test: Test B pre/postemergence wild oat; format: in vivo, Avena fatua
Procedure, shortened: as §2

surinam grass = test: Test B pre/postemergence surinam grass; format: in vivo, Brachiaria decumbens
Procedure, shortened: as §2

blackgrass = test: Test B pre/postemergence blackgrass; format: in vivo, Alopecurus myosuroides
Procedure, shortened: as §2

[1] = Rate 62 g/ha, flood test species, Pre-emergence, visual evaluation after twelve to sixteen days
[2] = Rate 125 g/ha, under heading Pre-emergence, flood test species, visual evaluation after twelve to sixteen days
[3] = Rate 250 g/ha, Pre-emergence (flood test species), scale 0 to 10, 0 is no effect, 10 is complete control
[4] = Rate 500 g/ha, Pre-emergence section of Table B, 0 to 10 scale (0 no effect, 10 complete control)
[5] = Postemergence, Rate 62 g/ha, scale 0 to 10, 0 is no effect, 10 is complete control
[6] = Postemergence, Rate 125 g/ha, scale of 0 to 10 where 0 is no effect and 10 is complete control
[7] = Preemergence, Rate 62 g/ha, scale of 0 to 10 where 0 is no effect and 10 is complete control
[8] = Preemergence, Rate 125 g/ha, scale of 0 to 10 where 0 is no effect and 10 is complete control
[9] = Preemergence, Rate 250 g/ha, scale 0 to 10 (0 no effect, 10 complete control)
[10] = Preemergence, Rate 500 g/ha, scale of 0 to 10 where 0 is no effect and 10 is complete control
[11] = Rate 500 g/ha, Postemergence, scale 0 to 10, 0 is no effect, 10 is complete control
[12] = Postemergence, Rate 250 g/ha, scale of 0 to 10, 0 is no effect, 10 is complete control

CC[C@@H](C)n1c(=O)on(C(=O)N(c2ccc(Cl)cc2)C(C)C)c1=O [Compound 665]
Plant response rating, S. Flatsedge (0 to 10 scale, 0 is no effect, 10 is complete control) (smallflower flatsedge; [1]): 0 | S. Flatsedge plant response rating (0 to 10 scale, 0 is no effect, 10 is complete control) (smallflower flatsedge; [2]): 0 | S. Flatsedge plant response rating (smallflower flatsedge; [3]): 0 | S. Flatsedge plant response rating (smallflower flatsedge; [4]): 0 | Plant response rating, Rape (rape; [5]): 0 | Rape plant response rating (rape; [6]): 0 | Rape plant response rating (rape; [7]): 4 | Rape plant response rating (rape; [8]): 6 | Plant response rating, Rape (rape; [9]): 8 | Plant response rating, Rape (rape; [10]): 9 | Rape plant response rating (rape; [11]): 4 | Plant response rating, Barnyardgrass (0 to 10 scale, 0 is no effect, 10 is complete control) (bamyardgrass; [1]): 0 | Barnyardgrass plant response rating (0 to 10 scale, 0 is no effect, 10 is complete control) (bamyardgrass; [2]): 0 | Barnyardgrass plant response rating (bamyardgrass; [3]): 2 | Barnyardgrass plant response rating (bamyardgrass; [4]): 6 | Bedstraw plant response rating (bedstraw): 0 | Plant response rating, Sugarbeets (sugar beet; [5]): 0 | Sugarbeets plant response rating (sugar beet; [6]): 0 | Sugarbeets plant response rating (sugar beet; [7]): 0 | Sugarbeets plant response rating (sugar beet; [8]): 3 | Plant response rating, Sugarbeets (sugar beet; [9]): 6 | Plant response rating, Sugarbeets (sugar beet; [10]): 7 | Sugarbeets plant response rating (sugar beet; [11]): 4 | Plant response rating, Velvetleaf (velvetleaf; [5]): 0 | Velvetleaf plant response rating (velvetleaf; [6]): 2 | Velvetleaf plant response rating (velvetleaf; [7]): 0 | Velvetleaf plant response rating (velvetleaf; [8]): 0 | Plant response rating, Velvetleaf (velvetleaf; [9]): 4 | Plant response rating, Velvetleaf (velvetleaf; [10]): 7 | Velvetleaf plant response rating (velvetleaf; [11]): 7 | Plant response rating, Corn (corn; [5]): 0 | Corn plant response rating (corn; [6]): 0 | Corn plant response rating (corn; [12]): 0 | Corn plant response rating (corn; [7]): 0 | Corn plant response rating (corn; [8]): 0 | Plant response rating, Corn (corn; [9]): 0 | Plant response rating, Corn (corn; [10]): 3 | Corn plant response rating (corn; [11]): 3 | Plant response rating, Wheat (wheat; [5]): 0 | Wheat plant response rating (wheat; [6]): 0 | Wheat plant response rating (wheat; [7]): 0 | Wheat plant response rating (wheat; [8]): 3 | Plant response rating, Wheat (wheat; [9]): 4 | Plant response rating, Wheat (wheat; [10]): 4 | Wheat plant response rating (wheat; [11]): 4 | Plant response rating, Cocklebur (cocklebur; [5]): 0 | Cocklebur plant response rating (cocklebur; [6]): 0 | Cocklebur plant response rating (cocklebur; [12]): 0 | Cocklebur plant response rating (cocklebur; [7]): 0 | Cocklebur plant response rating (cocklebur; [8]): 0 | Plant response rating, Cocklebur (cocklebur; [9]): 0 | Plant response rating, Cocklebur (cocklebur; [10]): 0 | Cocklebur plant response rating (cocklebur; [11]): 2 | Plant response rating, Crabgrass (crabgrass; [5]): 1 | Crabgrass plant response rating (crabgrass; [6]): 7 | Crabgrass plant response rating (crabgrass; [12]): 9 | Crabgrass plant response rating (crabgrass; [7]): 6 | Crabgrass plant response rating (crabgrass; [8]): 8 | Plant response rating, Crabgrass (crabgrass; [9]): 9 | Plant response rating, Crabgrass (crabgrass; [10]): 10 | Crabgrass plant response rating (crabgrass; [11]): 9 | Plant response rating, Redroot pigweed (pigweed; [5]): 3 | Redroot pigweed plant response rating (pigweed; [6]): 3 | Redroot pigweed plant response rating (pigweed; [7]): 7 | Redroot pigweed plant response rating (pigweed; [8]): 8 | Plant response rating, Redroot pigweed (pigweed; [9]): 9 | Plant response rating, Redroot pigweed (pigweed; [10]): 10 | Redroot pigweed plant response rating (pigweed; [11]): 7 | Plant response rating, Soybean (soybean; [5]): 2 | Soybean plant response rating (soybean; [6]): 2 | Soybean plant response rating (soybean; [7]): 0 | Soybean plant response rating (soybean; [8]): 0 | Plant response rating, Soybean (soybean; [9]): 0 | Plant response rating, Soybean (soybean; [10]): 2 | Nutsedge plant response rating (purple nutsedge; [6]): 0 | Nutsedge plant response rating (purple nutsedge; [7]): 0 | Nutsedge plant response rating (purple nutsedge; [8]): 0 | Plant response rating, Nutsedge (purple nutsedge; [9]): 0 | Nutsedge plant response rating (purple nutsedge; [11]): 0 | Plant response rating, Wild oats (wild oat; [5]): 0 | Wild oats plant response rating (wild oat; [6]): 0 | Wild oats plant response rating (wild oat; [7]): 3 | Wild oats plant response rating (wild oat; [8]): 5 | Plant response rating, Wild oats (wild oat; [9]): 7 | Plant response rating, Wild oats (wild oat; [10]): 8 | Wild oats plant response rating (wild oat; [11]): 5 | Plant response rating, B. signalgrass (surinam grass; [5]): 0 | Plant response rating, B. signalgrass (surinam grass; [6]): 0 | B. signalgrass plant response rating (surinam grass; [12]): 1 | B. signalgrass plant response rating (surinam grass; [7]): 1 | B. signalgrass plant response rating (surinam grass; [8]): 4 | Plant response rating, B. signalgrass (surinam grass; [9]): 8 | Plant response rating, B. signalgrass (surinam grass; [10]): 8 | B. signalgrass plant response rating (surinam grass; [11]): 5 | Plant response rating, Blackgrass (blackgrass; [5]): 3 | Blackgrass plant response rating (blackgrass; [6]): 7 | Blackgrass plant response rating (blackgrass; [12]): 8 | Blackgrass plant response rating (blackgrass; [7]): 5 | Blackgrass plant response rating (blackgrass; [8]): 7 | Plant response rating, Blackgrass (blackgrass; [9]): 8 | Plant response rating, Blackgrass (blackgrass; [10]): 9 | Blackgrass plant response rating (blackgrass; [11]): 8
